Laboratory results: ChEMBL document CHEMBL1141555, “Synthesis and biological activity of piperazine and diazepane amides that are histamine H3 antagonists and serotonin reuptake inhibitors” (Bioorg Med Chem Lett, 2008)

Legend:
Type in all cases: ADME, organism-based
[1] = Volume of distribution at steady state in rat; conditions: in vivo, read-out: Vdss
[2] = Clearance in rat; conditions: in vivo
[3] = Drug level in rat plasma at 10 mg/kg, po; design: dose 10 mg/kg, route oral
[4] = Half life in iv dosed rat; conditions: in vivo
[5] = Drug level in rat brain at 10 mg/kg, po; design: dose 10 mg/kg, route oral
[6] = Bioavailability in rat; conditions: in vivo

Vd [1]: 13 L/kg
clearance [2]: 10.2 mL/min/kg
Cmax [3]: > 1000 nM
half-life [4]: 16.1 h
Cmax [5]: > 1000 nM
bioavailability [6]: 93%
SMILES: CNCc1cc(C(=O)N2CCN(C3CC3)CC2)ccc1Oc1ccc(Cl)c(Cl)c1
